Test results from ChEMBL document CHEMBL1201862, “PubChem BioAssay data set” (2004).
Calls of active or inactive are those of the source.

Tests used:
[1] = M. tuberculosis H37Rv growth inhibitors, H37Rv strain (AID 1626); format: functional
H9c2 = assay: cells; format: functional, cell-based; settings: Rattus norvegicus, H9c2, Myocardium
[2] = Artemis endonuclease inhibitor potency, dose response, biochemical, fluorescence intensity (AID 720701); format: functional;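 note: Artemis endonuclease enzyme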
[3] = Late stage results for the probe development effort to identify inhibitors of Plasmodium falciparum gametocytes: Luminescence-based cell-based high throughput dose response assay to identify inhibitors of viability of late stage Plasmodium falciparum gametocytes.; format: functional
Paired box protein Pax-8 = Paired box protein Pax-8 (Homo sapiens, UniProt Q06710); assay: inhibitors of PAX8-driven TPO luciferase reporter, dose response, RMG-I cells, cherry-pick (AID 687027); format: functional, cell-based;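 note: luciferase reporter driven by Pax8 target thyroperoxidase promoter measured by SteadyGlo luminescence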
[4] = IOSE-T80 ovarian epithelial cell cytotoxicity, dose response, cytotoxicity control for PAX8 inhibitor project, plate reader, dry powder samples (AID 743045); format: functional, cell-based
[5] = inhibitors of PGC1a acetylation in cells, dose response, cell-based, cherry-picked samples (AID 720514); format: functional;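 note: potency may reflect raised or lowered acetylation signal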
[6] = NIH:OVCAR-3 ovarian cancer cell cytotoxicity, dose response, PAX8 inhibitor project, plate reader, dry powder samples (AID 743044); format: functional, cell-based
[7] = non-specific cell cytotoxicity, dose response, cytotoxicity control for PAX8 inhibitor project, plate reader, dry powder samples (AID 743021); format: functional, cell-based
[8] = cytotoxicity in OVCAR8 ovarian cancer cells, dose response, PAX8 project, cell-based, plate reader, dry powder samples (AID 743197); format: functional; settings: OVCAR-8
[9] = P. falciparum Dd2 growth inhibitors, dose response, SYBR Green, cherry-picked samples (AID 1159567); format: functional, cell-based
[10] = HepG2 cell cytotoxicity, dose response, cytotoxicity control, cherry-picked samples (AID 1159577); format: functional, cell-based
[11] = A2780 ovarian cancer cell cytotoxicity, dose response, cytotoxicity control, plate reader, dry powder samples (AID 743046); format: functional, cell-based
[12] = P. falciparum 3D7-ScDHODH growth inhibitors, dose response, SYBR Green, dry powder samples (AID 1159570); format: functional, cell-based;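 note: parasite growth measured after 72 hours of compound exposure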
[13] = HepG2 cell cytotoxicity, dose response, cytotoxicity control, plate reader, dry powder samples (AID 1159569); format: functional, cell-based;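 note: inhibitor potency with signal falling toward the positive control level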
[14] = P. falciparum Dd2 growth inhibitors, dose response, SYBR Green, dry powder samples (AID 1159566); format: functional, cell-based;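 note: potency for growth inhibition with lower SYBR green DNA signal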
[15] = P. falciparum ATP4 D1247Y mutant growth inhibitors, dose response, NITD609-resistant line, SYBR Green, dry powder (AID 1159571); format: functional, cell-based;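 note: parasites synchronized at ring stage by sorbitol before testing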
[16] = TB: CFU replicating Measured in Microorganism System Using Imaging - 7108-05_Inhibitor_Dose_DryPowder_Activity_Set2.; format: functional
[17] = Concentration-dependent survival of SW480 colon cancer line, luminescence detection with CellTiter-Glo, half-maximal inhibitory concentration (AID 1117338); format: functional
[18] = RKO cell viability reduction, dose response, CellTiter-Glo luminescence (AID 1117322); format: functional
[19] = cytotoxicity toward HCT116 cells – cell-based, CellTiter-Glo luminescence, IC50, dose response (AID 1117332); format: functional; settings: HCT-116
[20] = half-maximal inhibitory concentration for glucagon-like peptide-1 release, STC-1 cell line, dose-response (AID 1117345); format: functional, cell-based
[21] = cytotoxicity toward Colo320 cells – cell-based, CellTiter-Glo luminescence, IC50, dose response (AID 1117334); format: functional; settings: COLO 320
[22] = cytotoxicity toward HT-29 cells – cell-based, CellTiter-Glo luminescence, IC50, dose response (AID 1117330); format: functional
[23] = HCT116 cell viability decrease, GSK3B pretreatment – CellTiter-Glo, IC50, dose response (AID 1117339); format: functional; settings: HCT-116
[24] = Glucagon-like peptide 1 release potency, NCI-H716 cell line, dose-response, half-maximal inhibitory concentration (AID 1117344); format: functional, cell-based
[25] = SNU-C1 cell viability reduction, dose response, CellTiter-Glo luminescence (AID 1117323); format: functional, cell-based
[26] = CellTiter-Glo luminescent dose response of DLD-1 viability loss (AID 1117352); format: functional

Paired box protein Pax-8, sequence (Q06710 whole entry): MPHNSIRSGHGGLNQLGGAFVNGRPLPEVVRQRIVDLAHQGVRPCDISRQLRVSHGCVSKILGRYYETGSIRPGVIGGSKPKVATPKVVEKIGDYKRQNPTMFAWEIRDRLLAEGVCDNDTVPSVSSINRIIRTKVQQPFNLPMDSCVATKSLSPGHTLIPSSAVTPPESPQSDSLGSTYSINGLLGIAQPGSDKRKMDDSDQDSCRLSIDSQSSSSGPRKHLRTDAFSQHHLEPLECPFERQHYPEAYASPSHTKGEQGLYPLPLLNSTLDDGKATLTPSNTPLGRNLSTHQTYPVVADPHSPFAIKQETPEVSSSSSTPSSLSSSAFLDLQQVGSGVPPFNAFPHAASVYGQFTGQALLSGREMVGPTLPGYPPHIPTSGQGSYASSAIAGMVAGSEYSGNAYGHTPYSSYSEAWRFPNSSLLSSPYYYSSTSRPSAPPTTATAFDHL

## COc1ccc(-c2nn(-c3ccccc3)cc2C(=O)Nc2nccs2)cc1
[1]
  IC50: > 100 µM (active)
H9c2
  IC50: > 79 µM (inactive)
[2]
  IC50: 9.49 µM (active)
[3]
  IC50: > 74.4 µM (inactive)

## Cc1ccc(-c2ccc([C@@H]3[C@@H]4CN(C(=O)Nc5ccc(C(F)(F)F)cc5)C[C@H]3N4)cc2)cc1
Paired box protein Pax-8
  AC50: 3.06 µM (active)
[4]
  AC50: 11.3 µM (active)
[5]
  AC50: 6.73 µM (active)
[6]
  AC50: 17 µM (active)
[7]
  AC50: 14 µM (active)
[8]
  AC50: 22.8 µM (active)
[9]
  AC50: 2.33 µM (active)
[10]
  AC50: 2.72 µM (active)

## C[C@@H]1CN([C@@H](C)CO)C(=O)c2cc(NC(=O)Nc3ccc(C(F)(F)F)cc3)ccc2O[C@@H](C)CCCCO[C@@H]1CN(C)Cc1ccc2c(c1)OCO2
Paired box protein Pax-8
  AC50: 5.64 µM (active)
[11]
  AC50: 56.1 µM (active)
[8]
  AC50: 57.3 µM (active)

## COc1ccc(S(=O)(=O)N2CCC3(CC2)CN(Cc2ccncc2)[C@@H](CO)c2[nH]c4cc(OC)ccc4c23)cc1
[12]
  AC50: 1.41 µM (active)
[13]
  AC50: 22.9 µM (active)
[9]
  AC50: 2.29 µM (active)
[14]
  AC50: 1.17 µM (active)
[15]
  AC50: 1.67 µM (active)

## Cn1c(-n2c(=O)nc3n(C)c4ccccc4n3c2=O)nc2ccccc21
[16]
  AbsAC90: 268.91 µM

## Oc1ccc(Cl)cc1Cc1ccccc1 [CLOROPHENE]
[17]
  IC50: > 20 µM (inactive)
[18]
  IC50: > 20 µM (inactive)
[19]
  IC50: > 20 µM (inactive)
[20]
  IC50: 7.62 µM (inactive)
[21]
  IC50: 13 µM (inactive)
[22]
  IC50: > 20 µM (inactive)
[23]
  IC50: > 6.67 µM (inactive)
[24]
  IC50: 33.8 µM (inactive)

## CCn1cc(C(=O)O)c(=O)c2cnc(N3CCNCC3)nc21 [PIPEMIDIC ACID]
[17]
  IC50: > 20 µM (inactive)
[18]
  IC50: > 20 µM (inactive)
[19]
  IC50: > 20 µM (inactive)
[25]
  IC50: > 20 µM (inactive)
[21]
  IC50: > 20 µM (inactive)
[22]
  IC50: > 20 µM (inactive)
[26]
  IC50: > 20 µM (inactive)
